Where two headings read alike, the source gives them in different places.
System: Influenza A H1N1 virus (H1N1-PR8)
Assay type: cell-based
Conditions: for average inactivation efficiency against virus: three experiments

Q: Which results are given for `O=C(O[C@@H]1Cc2c(O)cc(O)cc2O[C@@H]1c1cc(O)c(O)c(O)c1)c1cc(O)c(O)c(O)c1` [EGCG, Epigallocatechin gallate]?
A: CPE test, virus replication in cell wells (wells 1-10) (0.2 mM EGCG + PR8 virus, 5 minutes, third experiment, dilution factor 10^1): +; CPE test, virus replication in cell wells (wells 1-10) (0.2 mM EGCG + PR8 virus, 5 minutes, third experiment, dilution factor 10^2): +; CPE test, virus replication in cell wells (wells 1-10) (0.2 mM EGCG + PR8 virus, 5 minutes, third experiment, dilution factor 10^3): +; CPE test, virus replication in cell wells (wells 1-10) (0.2 mM EGCG + PR8 virus, 5 minutes, third experiment, dilution factor 10^4): +; CPE test, virus replication in cell wells (wells 1-10) (0.2 mM EGCG + PR8 virus, 5 minutes, third experiment, dilution factor 10^5): +; CPE test, virus replication in cell wells (wells 1-10) (0.2 mM EGCG + PR8 virus, 5 minutes, third experiment, dilution factor 10^6): − and +; CPE test, virus replication in cell wells (wells 1-10) (0.2 mM EGCG + PR8 virus, 5 minutes, third experiment, dilution factor 10^7): −; CPE test, virus replication in cell wells (wells 1-10) (0.2 mM EGCG + PR8 virus, 5 minutes, third experiment, dilution factor 10^8): −; CPE test (virus replication in the cell wells) (0.2 mM EGCG + PR8 virus, co-incubated 1 minute, third experiment, dilution factor 10^1, wells 1-10): +; CPE test (virus replication in the cell wells) (0.2 mM EGCG + PR8 virus, co-incubated 1 minute, third experiment, dilution factor 10^2, wells 1-10): +; CPE test (virus replication in the cell wells) (0.2 mM EGCG + PR8 virus, co-incubated 1 minute, third experiment, dilution factor 10^3, wells 1-10): +; CPE test (virus replication in the cell wells) (0.2 mM EGCG + PR8 virus, co-incubated 1 minute, third experiment, dilution factor 10^4, wells 1-10): +; CPE test (virus replication in the cell wells) (0.2 mM EGCG + PR8 virus, co-incubated 1 minute, third experiment, dilution factor 10^5, wells 1-10): +; CPE test (virus replication in the cell wells) (0.2 mM EGCG + PR8 virus, co-incubated 1 minute, third experiment, dilution factor 10^6, wells 1-10): + and −; CPE test (virus replication in the cell wells) (0.2 mM EGCG + PR8 virus, co-incubated 1 minute, third experiment, dilution factor 10^7, wells 1-10): − and +; CPE test (virus replication in the cell wells) (0.2 mM EGCG + PR8 virus, co-incubated 1 minute, third experiment, dilution factor 10^8, wells 1-10): −; CPE test (virus replication in the cell wells) (0.2 mM EGCG + virus, PR8, 1 minute, first experiment, dilution factor 10^1, wells 1-10): +; CPE test (virus replication in the cell wells) (0.2 mM EGCG + virus, PR8, 1 minute, first experiment, dilution factor 10^2, wells 1-10): +; CPE test (virus replication in the cell wells) (0.2 mM EGCG + virus, PR8, 1 minute, first experiment, dilution factor 10^3, wells 1-10): +; CPE test (virus replication in the cell wells) (0.2 mM EGCG + virus, PR8, 1 minute, first experiment, dilution factor 10^4, wells 1-10): +; CPE test (virus replication in the cell wells) (0.2 mM EGCG + virus, PR8, 1 minute, first experiment, dilution factor 10^5, wells 1-10): +; CPE test (virus replication in the cell wells) (0.2 mM EGCG + virus, PR8, 1 minute, first experiment, dilution factor 10^6, wells 1-10): − and +; CPE test (virus replication in the cell wells) (0.2 mM EGCG + virus, PR8, 1 minute, first experiment, dilution factor 10^7, wells 1-10): − and +; CPE test (virus replication in the cell wells) (0.2 mM EGCG + virus, PR8, 1 minute, first experiment, dilution factor 10^8, wells 1-10): −; CPE test (virus replication in the cell wells) (0.2 mM EGCG + virus, PR8, 1 minute, second experiment, dilution factor 10^1, wells 1-10): +; CPE test (virus replication in the cell wells) (0.2 mM EGCG + virus, PR8, 1 minute, second experiment, dilution factor 10^2, wells 1-10): +; CPE test (virus replication in the cell wells) (0.2 mM EGCG + virus, PR8, 1 minute, second experiment, dilution factor 10^3, wells 1-10): +; CPE test (virus replication in the cell wells) (0.2 mM EGCG + virus, PR8, 1 minute, second experiment, dilution factor 10^4, wells 1-10): +; CPE test (virus replication in the cell wells) (0.2 mM EGCG + virus, PR8, 1 minute, second experiment, dilution factor 10^5, wells 1-10): +; CPE test (virus replication in the cell wells) (0.2 mM EGCG + virus, PR8, 1 minute, second experiment, dilution factor 10^6, wells 1-10): + and −; CPE test (virus replication in the cell wells) (0.2 mM EGCG + virus, PR8, 1 minute, second experiment, dilution factor 10^7, wells 1-10): −; CPE test (virus replication in the cell wells) (0.2 mM EGCG + virus, PR8, 1 minute, second experiment, dilution factor 10^8, wells 1-10): −; average inactivation efficiency against virus (0.2 mM EGCG, PR8 virus, 1 minute): 49.88%; inactivation efficiency against the virus (0.2 mM EGCG, PR8 virus, 5 minutes, single experiment): 84.15%; average inactivation efficiency against virus (0.2 mM EGCG, PR8 virus, 5 minutes): 70.91%; CPE test, virus replication in cell wells (wells 1-10) (1 mM EGCG + PR8 virus, 5 minutes, third experiment, dilution factor 10^3): +; CPE test, virus replication in cell wells (wells 1-10) (1 mM EGCG + PR8 virus, 5 minutes, third experiment, dilution factor 10^4): +; CPE test, virus replication in cell wells (wells 1-10) (1 mM EGCG + PR8 virus, 5 minutes, third experiment, dilution factor 10^5): +; CPE test, virus replication in cell wells (wells 1-10) (1 mM EGCG + PR8 virus, 5 minutes, third experiment, dilution factor 10^6): − and +; CPE test, virus replication in cell wells (wells 1-10) (1 mM EGCG + PR8 virus, 5 minutes, third experiment, dilution factor 10^7): −; CPE test, virus replication in cell wells (wells 1-10) (1 mM EGCG + PR8 virus, 5 minutes, third experiment, dilution factor 10^8): −; CPE test (virus replication in the cell wells) (1 mM EGCG + PR8 virus, co-incubated 1 minute, third experiment, dilution factor 10^3, wells 1-10): +; CPE test (virus replication in the cell wells) (1 mM EGCG + PR8 virus, co-incubated 1 minute, third experiment, dilution factor 10^4, wells 1-10): +; CPE test (virus replication in the cell wells) (1 mM EGCG + PR8 virus, co-incubated 1 minute, third experiment, dilution factor 10^5, wells 1-10): + and −; CPE test (virus replication in the cell wells) (1 mM EGCG + PR8 virus, co-incubated 1 minute, third experiment, dilution factor 10^6, wells 1-10): − and +; CPE test (virus replication in the cell wells) (1 mM EGCG + PR8 virus, co-incubated 1 minute, third experiment, dilution factor 10^7, wells 1-10): −; CPE test (virus replication in the cell wells) (1 mM EGCG + PR8 virus, co-incubated 1 minute, third experiment, dilution factor 10^8, wells 1-10): −; CPE test (virus replication in the cell wells) (1 mM EGCG + PR8 virus, co-incubated 5 minutes, first experiment, dilution factor 10^3, wells 1-10): +; CPE test (virus replication in the cell wells) (1 mM EGCG + PR8 virus, co-incubated 5 minutes, first experiment, dilution factor 10^4, wells 1-10): +

Source: patent US20240238242A1, “EGCG buccal tablet and use thereof” (priority 2023, published 2024)
